The results in this text go back to article PMC12590356, “Novel pyrrolo[2,1-a]isoquinoline aryl ketones attenuate carbon nanotube-induced acute lung injury through NF-κB pathway inhibition” (RSC Advances, 2025).

In series [1] the test system is TNF-α. In words: TNF-α in BALF of ALI mice (ELISA). In kind it is in vivo, C57BL/6 mice. The following applies: SWCNT-induced ALI mice, 50 mg per kg dose. Here is the method: (§1) To confirm the in vivo inhibitory effects of 3g and 3k, we examined the levels of pro-inflammatory cytokines in bronchoalveolar lavage fluid (BALF) from ALI mice.
(§2) Based on the results of the previous in vitro experiments, 3g and 3k were chosen for animal experiments. 3g was dissolved in 5% DMSO and 3k was dissolved in 0.5% sodium carboxymethyl cellulose (CMC-Na). Male C57BL/6 mice were randomly divided into four groups of ten animals each: CON, single-walled carbon nanotubes (SWCNT) model, 3k (50 mg kg^−1) + SWCNT, 3g (50 mg kg^−1) + SWCNT. The SWCNT model group was administered a one-time tracheal drip of 50 μL of SWCNT suspension containing 40 μg of SWCNT (approximately 1.86 mg per kg body weight) per mouse to model ALI. A blank tracheal drip of PBS was administered to the negative control. 3k + SWCNT and 3g + SWCNT groups were administered 3k or 3g of 50 mg per kg body weight once a day for 3d. The animals in the CON group received the same volume of 0.5% CMC-Na. The 1st dose was administered 1 h before modeling to avoid excessive damage to mice. The control and model groups were injected intraperitoneally with a blank solvent. […]
(§3) The collected bronchoalveolar lavage fluid (BALF) was centrifuged to obtain the supernatant. The concentrations of TNF-α and IL-6 in BALF were determined using ELISA. […]
(ELISA stands for enzyme-linked immunosorbent assay.)

The subject of series [2] is LPS-induced NO production in RAW 264.7 cells. As to the kind of experiment: LPS-induced NO production (Griess reagent). It is filed as cell-based, murine. To be noted: Mus musculus, RAW264.7, LPS 500 ng/mL 24 h, Griess reagent, means ± SD (n = 3), read-out: IC50, inhibition of LPS-induced NO production. As for the experimental part: Despite extensive research efforts focused on the treatment ALI, no specific drugs have been identified thus far. In the quest to discover innovative anti-inflammatory drugs for ALI treatment, we assessed the anti-inflammatory potential of pyrrolo[2,1-a]isoquinoline aryl ketones were evaluated through their capacity to suppress LPS-induced NO release in RAW264.7 cells.[21,28] Griess reagent was used to quantify the levels of LPS-induced NO release in RAW264.7 cells following treatment with the synthesized compounds.
The quantification of NO production in activated RAW264.7 cells was achieved by measuring the concentration of nitrite, which serves as a stable oxidative metabolite of NO, employing a previously established protocol.[37] RAW264.7 cells were cultured overnight in 48-well plates at a cellular density of 5 × 10^4 cells per milliliter. […] Briefly, Griess reagents I and II were mixed with 50 μL of the culture medium supernatant, and the resultant mixture was analyzed spectrophotometrically at a wavelength of 540 nm using an automated microplate reader. The NO inhibition rate was calculated using the following formula: NO inhibition rate = [(OD540 − compound OD540)/(OD540 − blank OD540)] × 100%.

The subject of a further series is SWCNT-induced ALI mice. In words: Lung histopathology (H&E) in SWCNT-induced ALI mice. It is filed as in vivo, C57BL/6 mice. To be noted: 50 mg/kg once a day for 3 d. As for the experimental part: To evaluate the histopathological impact of 3g and 3k on SWCNT-induced ALI, hematoxylin and eosin (H&E) staining was performed on murine lung tissues.
as §2
Mouse lung tissues were isolated and stored in a 4% paraformaldehyde solution. […] Representative images of each sample were acquired (magnification ×200) and analyzed using the ImageJ software. […]

The nature of series [3]: CCK8 cell viability (cytotoxicity) assay. It is filed as cell-based, murine. To be noted: mouse, RAW264.7 cells, means ± SD (n = 3). Here is the method:
The toxic effect of synthesized compounds was evaluated on RAW264.7 cells utilizing a CCK8 assay kit.
RAW264.7 cells were seeded in 96-well plates and incubated with various compounds, each at a uniform concentration of 50 μM, for 24 h. Following this incubation, CCK8 was added to the 96-well plates and incubated at 37 °C for 1 h. The control group was cultivated solely in fresh medium. The absorbance at 450 nm was quantified using an enzyme marker.

The subject of series [4] is TNF-α. In words: TNF-α secretion in LPS-stimulated RAW264.7 macrophages (ELISA). In kind it is cell-based, murine. To be noted: Mus musculus, LPS (0.5 μg/mL)-stimulated RAW264.7 cells, 24 h, read-out: IC50 for TNF-α inhibition. Here is the method: (§4) To elucidate the anti-inflammatory mechanisms underlying 3g and 3k, we conducted a comprehensive investigation into their impact on the secretion of pro-inflammatory cytokines, employing an LPS-stimulated RAW264.7 macrophage model. TNF-α and IL-6, which serve as pivotal mediators in the pathogenesis of ALI, are primarily secreted by activated alveolar macrophages, neutrophils, and lung structural cells. […] In this study, RAW264.7 cells were treated with LPS (0.5 μg mL^−1) and varying concentrations of 3g or 3k for 24 hours. […] This mechanistic understanding provides robust support for the therapeutic potential of the novel diaryl ketone scaffold in the ALI management.
(§5) Fig. 2 Compounds 3g and 3k inhibited the cytokine production of RAW264.7 cells stimulated by LPS. […] The levels of IL-6 (A) and TNF-α (B) in the culture medium were measured by ELISA kits. Data are expressed as mean ± SEM for each group of independent experiments (n = 3); *p < 0.05; **p < 0.01; ***p < 0.001 vs. model group.
(§6) Based on the initial screening results, compounds 3g and 3k were selected for further experimentation. […] The levels of TNF-α and IL-6 released into the macrophage supernatant were quantified using ELISA kits sourced from Elabscience (Wuhan, China), according to the manufacturer's guidelines.

Series [5] deals with IL-6. As to the kind of experiment: IL-6 secretion in LPS-stimulated RAW264.7 macrophages (ELISA). It is filed as cell-based, murine. The following applies: LPS (0.5 μg/mL)-stimulated RAW264.7 cells, 5, 20, 40 μM, 24 h. As for the experimental part: as §4, §5, §6
The subject of series [6] is IL-6. In words: IL-6 in BALF of ALI mice (ELISA). It is filed as in vivo, C57BL/6 mice. The following applies: SWCNT-induced ALI mice, 50 mg per kg dose. As for the experimental part: as §1, §2, §3

“Also recorded” adds a separate entry of the source.

Consider `O=C(c1ccc(F)cc1)c1ccc2c3ccccc3ccn12` [3g], for which the “TNF-α level in BALF” value in the series with TNF-α [1] is reported as “effectively suppressed the release of TNF-α”. For the same compound, the IC50 (commonly the concentration that inhibits the measured activity by half) in series [2] is 6.91 ± 0.12 µM; in the series with TNF-α [4], 7.85 µM. Further, the “Histopathological lung changes (H&E)” value with SWCNT-induced ALI mice (50 mg/kg) is “significantly ameliorated these histopathological features; also recorded: superior efficacy in mitigating structural damage and neutrophil infiltration compared to 3k”. The viability (usually a per cent measure of how many cells are alive, often set against a control) at 24 h, 50 µM in series [3] is 86.5 ± 1.2%. Also, the IL-6 secretion entry with IL-6 [5] is “suppressed cytokine secretion in a dose-dependent manner”. For the same compound, in the series on IL-6 [6], the “IL-6 level in BALF” value is “effectively suppressed the release of TNF-α and IL-6”.

In the case of `Cc1ccccc1C(=O)c1ccc2c3ccccc3ccn12` [3k], the “TNF-α level in BALF” value in the series with TNF-α [1] is listed as “effectively suppressed the release of TNF-α”. The figures for the IC50 (in series [2]; in the series with TNF-α [4]) were 10.1 ± 2.09 µM and 8.3 µM, respectively. Besides, the “Histopathological lung changes (H&E)” value in the series with SWCNT-induced ALI mice was “significantly ameliorated these histopathological features”. In series [3], this compound came in with a viability at 24 h, 50 µM of 98.8 ± 4.7%. In addition, the IL-6 secretion result in the series with IL-6 [5] is “suppressed cytokine secretion in a dose-dependent manner”. In the series on IL-6 [6], the “IL-6 level in BALF” value was “effectively suppressed the release of TNF-α and IL-6”.
